pIC50: −log10 of the molar value.
Biological target: T1, WEE1 kinase (Homo sapiens, UniProt P30291)
T1 construct: purchased CarnaBiosciences, Inc. 05-177
Experiment: Inhibitory effect of compound on WEE1 kinase in vitro (ELISA)
Format: biochemical
Settings: ATP concentration of Km
Protocol: The tested compounds were screened on WEE1 kinase with ATP concentration of Km by ELISA. Compounds were screened on WEE1 kinase to evaluate the kinase inhibitory activity of the tested compounds. In the detection process, the initial concentration of the tested compounds was all selected as 100 nM, and each compound was selected with 6 gradient dilution concentrations, the gradient dilution ratio was 4-fold, and two replicate wells were detected for each concentration, MK1775 was used as the standard control.
WEE1, purchased from CarnaBiosciences, Inc., Item No. 05-177; dimethyl sulfoxide, purchased from Sigma-Aldrich, Item No. D8418; ATP, purchased from Sigma-Aldrich, Item No. A7699; DTT solution, purchased from Sigma-Aldrich, Item No. 43816; protein tyrosine kinase (PTK) substrate (poly-Glu-Tyr), purchased from Sigma-Aldrich, Item No. P4476; P-Tyr (PY99), purchased from Santa Cruz, Item No. sc-7020; Anti-mouse IgG HRP-linked Antibody, purchased from Santa Cruz, Item No. 7076S; TMB liquid Substrate System, purchased from Sigma-Aldrich, Item No. T0440; Costar Stripwell Microplate No Lid 1×8 Flat Bottom, Certified High Binding, purchased from Sigma-Aldrich, Item No. 42592; 96-well compound plate, purchased from Thermo Scientific, Item No. 267245.
• 1. Coating substrate: 1) An appropriate volume of substrate storage solution protein tyrosine kinase (PTK) substrate (poly-Glu-Tyr) was taken, diluted 10 times with PBS, and the concentration was diluted from […]. The mixture was added to a high adsorption 96-well plate at 125 μL per well. The plate was placed in an incubator at 37° C. for overnight coating. 2) After 24 hours, the 96-well plate was taken out, the liquid in the 96-well plate was poured out, cleaned with washing buffer for 3 times, and the incubator at 37° C. was inverted and dried for 2 hours. • 2. Compound preparation and transfer: 1) compound dilution: 10 mM of the test compound storage solution was taken, the compound in 96-well compound plate was diluted with DMSO in multiple steps to obtain the initial concentration of 100× compound as the first concentration, and then DMSO was used for 4-fold gradient dilution, for a total of 6 concentrations; after that, 2 μL of the gradient dilution solution was added to 48 μL of 1× reaction buffer respectively to prepare 4× compound; 2) 4× compounds were transferred: 10 μL of 4× compounds from the 96-well compound plate configured in the previous step were transferred into the dried high adsorption 96-well plate; 10 μL of the following liquids were added to the compound-free control wells and ATP-control wells: 2 μL of DMSO was added to 48 μL of 1× reaction buffer. • 3. Enzyme reaction stage: 1) WEE1 kinase and ATP were prepared into 2× enzyme solution and 4×ATP solution respectively with 1× reaction buffer. In this screening, the final concentration of WEE1 kinase was: 0.15 ng/μL and the final concentration of ATP was: […]; 2) 20 μL of enzyme solution of 2 was added to the high adsorption 96-well plate; 3) 10 μL of 4×ATP solution was added to the high adsorption 96-well plate and 10 μL of 1× reaction buffer was added to the ATP-control group; 4) the plate was placed in HERAEUS Multifuge X1R centrifuge at 2000 rpm for 20 s and then placed at room temperature and reacted for 60 min. • 4. Reaction termination stage: 1) the reaction mixture in the plate was poured out, 200 μL of washing buffer was added to each well, and washed for 5 times; the primary antibody P-Tyr (PY99) (dilution ratio 1:2000) was added, 100 μL per well, at room temperature for 30 min. 2) The primary antibody in the plate was poured out, 200 μL of washing buffer was added to each well, and washed for 5 times; the second antibody Anti-mouse IgG HRP-linked Antibody (dilution ratio 1:2000) was added, 100 μL per well, at room temperature for 30 min.

T1 sequence (P30291 whole entry): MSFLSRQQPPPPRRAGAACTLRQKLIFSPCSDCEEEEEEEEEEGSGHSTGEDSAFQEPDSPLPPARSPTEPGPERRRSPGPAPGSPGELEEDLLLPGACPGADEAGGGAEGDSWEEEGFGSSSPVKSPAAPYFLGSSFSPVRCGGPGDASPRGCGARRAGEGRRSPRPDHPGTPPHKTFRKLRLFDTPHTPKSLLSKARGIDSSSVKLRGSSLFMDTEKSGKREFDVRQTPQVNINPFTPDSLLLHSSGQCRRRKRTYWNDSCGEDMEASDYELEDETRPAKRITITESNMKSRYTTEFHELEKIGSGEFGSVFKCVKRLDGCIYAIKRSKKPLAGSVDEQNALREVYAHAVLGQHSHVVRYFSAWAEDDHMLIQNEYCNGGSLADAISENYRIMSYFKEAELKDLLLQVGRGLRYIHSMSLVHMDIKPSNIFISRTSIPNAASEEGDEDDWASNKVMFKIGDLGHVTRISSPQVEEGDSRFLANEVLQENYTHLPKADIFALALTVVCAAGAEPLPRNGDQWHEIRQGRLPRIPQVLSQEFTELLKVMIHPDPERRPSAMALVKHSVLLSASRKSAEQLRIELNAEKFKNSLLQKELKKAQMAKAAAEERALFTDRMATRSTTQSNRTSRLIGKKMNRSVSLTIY

pIC50: 8.82
Compound: C=CCn1c(=O)c2cnc(Nc3ccc(C4CCC(N5CCC5)CC4)cc3)nc2n1-c1cccc(C(C)(C)O)n1 (single isomer, unassigned) [Compound I-8-1]

Source: US12612408B2, “Pyrazolone-fused pyrimidine compound, preparation method for same and applications thereof” (SHANGHAI PHARMACEUTICALS HOLDING CO., LTD., priority 2019, dated 2026)
